Values quoted from earlier work, collected in patent publication EP4060021A1, “MIMETIC MICROBIOLOGICAL CULTURE MEDIUM AND USES THEREOF” (BIOFILM PHARMA, priority 2021, dated 2022).
Like-named read-outs stand apart in the source and are kept apart here.

Tests used:
P. aeruginosa = settings: coculture S. aureus avec P. aeruginosa dans du milieu Lubbock; cited from earlier work
S. aureus = settings: coculture S. aureus avec P. aeruginosa dans du milieu Lubbock; cited from earlier work
souche de S. aureus = settings: modèle de sepsis, souris infectée par S. aureus, traitées; cited from earlier work
[1] = tested on: souches de S. aureus issues de plaies; settings: cited from earlier work

## gentamicine
P. aeruginosa
  résistance en coculture: ce qui n'est pas le cas
S. aureus
  résistance en coculture: résistance partielle

## CO/N=C(\C(=O)N[C@@H]1C(=O)N2C(C(=O)O)=C(CSc3nc(=O)c(=O)[nH]n3C)CS[C@H]12)c1csc(N)n1 [ceftriaxone]
Souche de S. aureus
  survie des souris: ont survécu

## CC[C@H]1OC(=O)[C@H](C)[C@@H](O[C@H]2C[C@@](C)(OC)[C@@H](O)[C@H](C)O2)[C@H](C)[C@@H](O[C@@H]2O[C@H](C)C[C@H](N(C)C)[C@H]2O)[C@](C)(O)C[C@@H](C)C(=O)[C@H](C)[C@@H](O)[C@]1(C)O [érythromycine]
Souche de S. aureus
  survie des souris: ont survécu

## CCCCCCCCCC(=O)N[C@@H](Cc1c[nH]c2ccccc12)C(=O)N[C@@H](CC(N)=O)C(=O)N[C@@H](CC(=O)O)C(=O)N[C@@H]1C(=O)NCC(=O)N[C@@H](CCCN)C(=O)N[C@@H](CC(=O)O)C(=O)N[C@H](C)C(=O)N[C@@H](CC(=O)O)C(=O)NCC(=O)N[C@H](CO)C(=O)N[C@@H]([C@H](C)CC(=O)O)C(=O)N[C@@H](CC(=O)c2ccccc2N)C(=O)O[C@@H]1C (stereo in doubt) [daptomycine]
[1]; milieu DMEM
  sensibilité des souches de S. aureus: plus sensibles
[1]; milieux MLM ou Lacks
  sensibilité des souches de S. aureus: plus résistantes

## CC(=O)OCC1=C(C(=O)O)N2C(=O)[C@@H](NC(=O)Cc3cccs3)[C@H]2SC1 [cefalotine]
Souche de S. aureus
  survie des souris: ont survécu
